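Exposure lasted 48 hours, with cells grown in 96-well plates and compounds tested at five concentrations. TGI is the concentration that stops growth completely.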 Where a SMILES comes first, the peptide text is derived from it.
How the values were obtained:
Test in all cases: NCI tumour cell line growth inhibition, 48 h
COLO 205 colon = system: COLO 205 colon
NCI-H226 lung = system: NCI-H226 lung
MCF7 breast = system: MCF7 breast
MOLT-4 leukemia = system: MOLT-4 leukemia
HS 578T breast = system: HS 578T breast
SNB-75 CNS = system: SNB-75 CNS
UO-31 renal = system: UO-31 renal
K-562 leukemia = system: K-562 leukemia
PC-3 prostate = system: PC-3 prostate
SK-OV-3 ovarian = system: SK-OV-3 ovarian
CCRF-CEM leukemia = system: CCRF-CEM leukemia
TK-10 renal = system: TK-10 renal
SN12C renal = system: SN12C renal
NCI-H522 lung = system: NCI-H522 lung

Measured: TGI

C=CCC1C2CCC(O[Si](C(C)C)(C(C)C)C(C)C)(C(C(=O)OC)C2)C1O (stereo not given)
not listed: NCI-H522 lung
> 100 µM: all other assays above

CSc1nc(C)c(CCCl)c(Cl)n1
49.9 µM: NCI-H522 lung
not listed: NCI-H226 lung | MCF7 breast
> 100 µM: all other assays above

Nc1cc(N)c(N=Nc2cccc3c(S(=O)(=O)O)cccc23)cc1N=Nc1cc([N+](=O)[O-])ccc1O
61.4 µM: NCI-H522 lung
not listed: NCI-H226 lung | CCRF-CEM leukemia
> 100 µM: all other assays above

N#Cc1c(N2CCOCC2)ncn(-c2ccc(Cl)cc2)c1=O
not listed: HS 578T breast | TK-10 renal | NCI-H522 lung
> 100 µM: all other assays above

CN(C)C(=O)Oc1ccc(C(=S)Nc2ccccc2)cc1Br
38.1 µM: MOLT-4 leukemia
> 100 µM: MCF7 breast | HS 578T breast | UO-31 renal | K-562 leukemia | PC-3 prostate | SK-OV-3 ovarian
52.4 µM: NCI-H522 lung
55.3 µM: COLO 205 colon
48.6 µM: CCRF-CEM leukemia

Cc1[nH]c2ccccc2c1C1=CC(=O)N(c2ccccc2)C1=O
29.8 µM: K-562 leukemia
43.5 µM: HS 578T breast
73.4 µM: CCRF-CEM leukemia
86 µM: SN12C renal
60.7 µM: TK-10 renal
48.1 µM: MCF7 breast
88.4 µM: NCI-H226 lung
not listed: SNB-75 CNS | NCI-H522 lung
> 100 µM: all other assays above

O=C(O)CCc1nc2cc3ccccc3cc2[nH]c1=O
not listed: HS 578T breast
> 100 µM: all other assays above

COc1nc(OC)nc(Sc2ccc(Sc3ccc(Sc4nc(OC)nc(OC)n4)cc3)cc2)n1
not listed: MCF7 breast | HS 578T breast | PC-3 prostate
> 100 µM: all other assays above

Cc1ccc(Nc2cn(COCc3ccccc3)c(=O)[nH]c2=O)cc1
not listed: SNB-75 CNS | SK-OV-3 ovarian | TK-10 renal | NCI-H522 lung
> 100 µM: all other assays above

COC1C(OC(N)=O)C(O)C(Oc2ccc3c(O)c(NC(=O)c4ccc(O)c(CC=C(C)C)c4)c(=O)oc3c2C)OC1(C)C (stereo not given)
not listed: NCI-H226 lung | HS 578T breast | TK-10 renal | NCI-H522 lung
> 100 µM: all other assays above

O=[N+]([O-])c1ccc2[nH]c(O)c(N=NC(=S)Nc3ccccc3)c2c1
25.8 µM: SN12C renal
22 µM: UO-31 renal
24.6 µM: MCF7 breast
28.2 µM: SK-OV-3 ovarian
65.4 µM: NCI-H226 lung
20 µM: CCRF-CEM leukemia
23.6 µM: TK-10 renal
20.7 µM: PC-3 prostate
21.5 µM: SNB-75 CNS
not listed: NCI-H522 lung
> 100 µM: all other assays above

CC#Cc1c(C#CC)c(OC)c2c(c1OC)C(=O)c1ccccc1C2=O
42.5 µM: NCI-H522 lung
not listed: NCI-H226 lung | MCF7 breast | HS 578T breast | SNB-75 CNS | PC-3 prostate
> 100 µM: all other assays above

COC(=O)C1(C)OC(C)=NC1(C(=O)OC)C(=O)OC (stereo not given)
> 44 µM: CCRF-CEM leukemia
not listed: NCI-H522 lung
> 100 µM: all other assays above

COC(=O)CNCC1OC2OC(C)(C)OC2C1N=[N+]=[N-] (stereo not given)
not listed: COLO 205 colon | NCI-H522 lung
> 100 µM: all other assays above

CC(=O)NC(CO)C(=O)NC(Cc1ccc(O)cc1)C(=O)NCC(N)=O (stereo not drawn) (Ac-Ser-Tyr-Gly-NH2; configuration not given here)
not listed: HS 578T breast
> 100 µM: all other assays above

C=C(CC)C[C@@H]1C[C@]2(C(=O)OC)c3[nH]c4ccccc4c3CCN2C1=O
42.8 µM: PC-3 prostate
66.2 µM: SNB-75 CNS
47.2 µM: MCF7 breast
> 100 µM: COLO 205 colon | MOLT-4 leukemia | TK-10 renal
36.7 µM: NCI-H522 lung
38.6 µM: UO-31 renal
41.1 µM: HS 578T breast
63.9 µM: SK-OV-3 ovarian
41.3 µM: SN12C renal
58.1 µM: K-562 leukemia

CCSC12CC3c4cccc5c4C(CN5C(=O)c4ccccc4)CC3(O1)N(C)C2=O (stereo not given)
75 µM: COLO 205 colon
81.2 µM: PC-3 prostate
64.7 µM: NCI-H522 lung
62.9 µM: SN12C renal
62.6 µM: MOLT-4 leukemia
not listed: MCF7 breast
> 100 µM: all other assays above

Cc1nc2nn(C)cc2c(=O)n1/N=C/c1ccccc1
not listed: MCF7 breast | HS 578T breast | PC-3 prostate
> 100 µM: all other assays above

From PubChem BioAssay (NCI)
